Consider four compounds from ChEMBL document CHEMBL5346892, “Design and synthesis of benzochromene derivatives as AcrB inhibitors for the reversal of bacterial multidrug resistance” (Eur J Med Chem, 2023).

The subject of test [1] is Escherichia coli. As to the kind of experiment: Synergistic antibacterial activity against wild type Escherichia coli BW25113 assessed as levofloxacin MIC at 2 microg/ml incubated for 18 hrs in presence of colistin by broth dilution assay. In kind it is functional. Particulars: dose 2 µg/ml.
The test system of test [2] is Escherichia coli. Description: Synergistic antibacterial activity against wild type Escherichia coli BW25113 assessed as fold decrease in erythromycin MIC at 8 to 128 microg/ml incubated for 18 hrs by checkboard based microplate reader analysis. Particulars: dose 8-128 µg/ml. In kind it is functional.
Test [3] deals with Escherichia coli. Description: Synergistic antibacterial activity against wild type Escherichia coli BW25113 assessed as minocycline MIC at 1 microg/ml incubated for 18 hrs in presence of colistin by broth dilution assay. In kind it is functional. Particulars: dose 1 µg/ml.
Test [4] has as its system Escherichia coli. As to the kind of experiment: Synergistic antibacterial activity against wild type Escherichia coli BW25113 assessed as erythromycin MIC at 128 microg/ml incubated for 18 hrs in presence of colistin by broth dilution assay. In kind it is functional. The conditions noted are these: dose 128 µg/ml.
For test [5], the system named is Escherichia coli. As to the kind of experiment: Synergistic antibacterial activity against wild type Escherichia coli BW25113 assessed as fold decrease in erythromycin MIC at 64 microg/ml incubated for 18 hrs by checkboard based microplate reader analysis. In kind it is functional. Particulars: dose 64 µg/ml.
Test [6] concerns the target T1, Multidrug efflux pump subunit AcrB (Escherichia coli (strain K12)) (UniProt P31224).
T1 sequence (whole entry): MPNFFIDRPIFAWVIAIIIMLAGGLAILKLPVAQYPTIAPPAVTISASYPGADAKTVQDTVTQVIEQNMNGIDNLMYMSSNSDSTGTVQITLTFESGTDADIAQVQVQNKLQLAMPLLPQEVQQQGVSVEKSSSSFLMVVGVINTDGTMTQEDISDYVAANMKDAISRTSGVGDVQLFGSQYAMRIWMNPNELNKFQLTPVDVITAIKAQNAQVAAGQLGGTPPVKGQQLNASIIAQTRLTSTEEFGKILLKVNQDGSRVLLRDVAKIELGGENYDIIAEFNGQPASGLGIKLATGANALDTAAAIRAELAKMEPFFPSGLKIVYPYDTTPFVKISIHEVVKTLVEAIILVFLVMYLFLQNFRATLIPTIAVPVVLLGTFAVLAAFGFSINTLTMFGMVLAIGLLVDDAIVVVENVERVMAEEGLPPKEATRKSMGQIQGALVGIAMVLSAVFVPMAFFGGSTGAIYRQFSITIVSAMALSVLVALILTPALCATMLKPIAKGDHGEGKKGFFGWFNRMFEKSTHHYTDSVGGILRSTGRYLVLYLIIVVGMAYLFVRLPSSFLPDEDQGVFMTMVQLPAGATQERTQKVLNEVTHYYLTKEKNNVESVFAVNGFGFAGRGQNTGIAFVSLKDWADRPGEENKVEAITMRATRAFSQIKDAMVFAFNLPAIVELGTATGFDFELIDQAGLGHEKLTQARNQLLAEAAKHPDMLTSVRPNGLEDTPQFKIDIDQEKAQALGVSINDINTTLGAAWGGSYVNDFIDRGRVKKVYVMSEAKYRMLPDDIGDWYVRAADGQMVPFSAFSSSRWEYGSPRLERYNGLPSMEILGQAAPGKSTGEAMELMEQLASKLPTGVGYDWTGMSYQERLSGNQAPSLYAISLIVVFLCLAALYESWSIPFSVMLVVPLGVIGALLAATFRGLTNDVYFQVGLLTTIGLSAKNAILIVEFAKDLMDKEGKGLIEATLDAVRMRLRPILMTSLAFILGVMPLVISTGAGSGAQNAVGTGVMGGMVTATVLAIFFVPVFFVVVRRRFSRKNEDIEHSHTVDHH
Description: Inhibition of Escherichia coli BW25113 AcrB assessed as inhibition of nile red efflux at 100 uM incubated for 15 mins.

SMILES strings stand for the structures.

With `CC1(C)CCc2c(C(=O)N3CCOCC3)cc3c(OCCN4CCN(c5ccccc5)CC4)cccc3c2O1`, the MIC (usually the smallest concentration in the dilution series that meets the test's criterion for growth inhibition) with Escherichia coli [1] amounted to 0.032 µg/mL; in the test with Escherichia coli [3], 0.5 µg/mL. Also, in the test on Escherichia coli [2], the “fold change (FC)” value is recorded as 16.

Turning to `COc1ccc(OCCCOc2cccc3c4c(c(C(=O)N5CCOCC5)cc23)CCC(C)(C)O4)cc1`, in the test on Escherichia coli [4], the MIC was found to be 8 µg/mL.

For `CC1(C)CCc2c(C(=O)N3CCOCC3)cc3c(OCCCOc4cccc(C(=O)O)c4)cccc3c2O1`, the “fold change (FC)” value in the test with Escherichia coli [5] was found to be 4.

With `CC1(C)CCc2c(C(=O)N3CCOCC3)cc3c(OCCSc4ccc([N+](=O)[O-])cc4)cccc3c2O1`, the inhibition (in general, the drop in the measured response relative to a control, in per cent) in test [6] came to 100%.
